Laboratory results published in ChEMBL document CHEMBL5723379, “Affinity On-target Cellular Literature for EUbOPEN Chemogenomic Library” (2024).

Experiments:
Adenosine kinase = Adenosine kinase (Homo sapiens, UniProt P55263); assay: Affinity On-target Cellular interaction: (Intact cell adenosine phosphorylation assay (radiochemical), IMR-32 human neuroblastoma cells) EUB0002485aCl ADK; format: functional, cell-based; parameters: mode of action Inhibitor, recommended concentration 1 uM
[1] = biological target: T1, Peroxisome proliferator-activated receptor delta (Homo sapiens, UniProt Q03181); assay: Affinity On-target Cellular interaction: (Reporter gene assay (HEK293T cells)) EUB0001483aCl PPARD; format: functional, cell-based, HEK-293T; parameters: mode of action Antagonist, recommended concentration 10 uM
T1 sequence (Q03181 whole entry): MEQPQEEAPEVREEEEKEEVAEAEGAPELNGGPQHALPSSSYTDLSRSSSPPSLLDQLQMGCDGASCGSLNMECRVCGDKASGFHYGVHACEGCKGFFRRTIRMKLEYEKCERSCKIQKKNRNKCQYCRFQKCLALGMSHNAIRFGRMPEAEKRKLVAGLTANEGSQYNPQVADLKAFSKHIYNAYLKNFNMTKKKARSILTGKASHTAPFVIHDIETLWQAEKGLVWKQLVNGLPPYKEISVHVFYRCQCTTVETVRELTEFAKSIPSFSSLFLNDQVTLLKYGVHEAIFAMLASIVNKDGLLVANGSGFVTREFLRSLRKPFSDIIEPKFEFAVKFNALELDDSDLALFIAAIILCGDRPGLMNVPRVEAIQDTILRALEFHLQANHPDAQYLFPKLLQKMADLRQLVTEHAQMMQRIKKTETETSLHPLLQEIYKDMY

[2] = biological target: T2, Nuclear receptor ROR-gamma (Homo sapiens, UniProt P51449)
T2 sequence (P51449 whole entry): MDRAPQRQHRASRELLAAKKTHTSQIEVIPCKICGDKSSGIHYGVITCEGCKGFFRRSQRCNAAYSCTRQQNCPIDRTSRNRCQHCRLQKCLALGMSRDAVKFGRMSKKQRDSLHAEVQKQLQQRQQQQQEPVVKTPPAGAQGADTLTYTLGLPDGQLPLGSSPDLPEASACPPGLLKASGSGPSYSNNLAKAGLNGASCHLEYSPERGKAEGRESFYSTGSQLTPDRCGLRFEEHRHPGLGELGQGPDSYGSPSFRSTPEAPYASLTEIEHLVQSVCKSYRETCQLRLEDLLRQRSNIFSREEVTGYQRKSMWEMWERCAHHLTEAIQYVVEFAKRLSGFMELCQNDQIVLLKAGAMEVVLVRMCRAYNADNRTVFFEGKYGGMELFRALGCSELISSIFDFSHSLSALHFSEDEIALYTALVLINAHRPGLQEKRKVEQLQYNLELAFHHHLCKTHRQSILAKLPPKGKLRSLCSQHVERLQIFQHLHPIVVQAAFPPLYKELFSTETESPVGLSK

[3] = biological target: Nuclear receptor subfamily 1 group I member 2 (Homo sapiens, UniProt O75469); assay: Affinity On-target Cellular interaction: (Reporter gene assay (HEK293T cells)) EUB0002359a NR1I2; format: functional, cell-based, HEK-293T; parameters: mode of action Agonist, recommended concentration 1 uM
Nuclear receptor subfamily 1 group I member 2, sequence (O75469 whole entry): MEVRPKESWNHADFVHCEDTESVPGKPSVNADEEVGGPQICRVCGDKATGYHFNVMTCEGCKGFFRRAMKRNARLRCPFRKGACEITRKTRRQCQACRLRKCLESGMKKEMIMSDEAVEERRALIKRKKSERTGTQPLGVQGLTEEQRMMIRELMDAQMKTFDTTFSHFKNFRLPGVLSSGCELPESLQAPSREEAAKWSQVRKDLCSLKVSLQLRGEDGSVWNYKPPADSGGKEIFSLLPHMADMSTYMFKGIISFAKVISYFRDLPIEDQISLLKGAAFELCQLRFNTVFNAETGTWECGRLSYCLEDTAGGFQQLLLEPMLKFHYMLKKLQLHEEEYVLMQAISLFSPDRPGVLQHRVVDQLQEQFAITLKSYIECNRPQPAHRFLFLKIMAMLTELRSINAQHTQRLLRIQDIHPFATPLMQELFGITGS

[4] = biological target: Triacylglycerol hydrolase DDHD2 (Homo sapiens, UniProt O94830); assay: Affinity On-target Cellular interaction: (Inhibition of DDHD2 in HEK293T cells measured by competitive activity-based protein profiling) EUB0002612a DDHD2; format: functional, cell-based, HEK-293T; parameters: mode of action Inhibitor, recommended concentration 1 uM
Triacylglycerol hydrolase DDHD2, sequence (O94830 whole entry): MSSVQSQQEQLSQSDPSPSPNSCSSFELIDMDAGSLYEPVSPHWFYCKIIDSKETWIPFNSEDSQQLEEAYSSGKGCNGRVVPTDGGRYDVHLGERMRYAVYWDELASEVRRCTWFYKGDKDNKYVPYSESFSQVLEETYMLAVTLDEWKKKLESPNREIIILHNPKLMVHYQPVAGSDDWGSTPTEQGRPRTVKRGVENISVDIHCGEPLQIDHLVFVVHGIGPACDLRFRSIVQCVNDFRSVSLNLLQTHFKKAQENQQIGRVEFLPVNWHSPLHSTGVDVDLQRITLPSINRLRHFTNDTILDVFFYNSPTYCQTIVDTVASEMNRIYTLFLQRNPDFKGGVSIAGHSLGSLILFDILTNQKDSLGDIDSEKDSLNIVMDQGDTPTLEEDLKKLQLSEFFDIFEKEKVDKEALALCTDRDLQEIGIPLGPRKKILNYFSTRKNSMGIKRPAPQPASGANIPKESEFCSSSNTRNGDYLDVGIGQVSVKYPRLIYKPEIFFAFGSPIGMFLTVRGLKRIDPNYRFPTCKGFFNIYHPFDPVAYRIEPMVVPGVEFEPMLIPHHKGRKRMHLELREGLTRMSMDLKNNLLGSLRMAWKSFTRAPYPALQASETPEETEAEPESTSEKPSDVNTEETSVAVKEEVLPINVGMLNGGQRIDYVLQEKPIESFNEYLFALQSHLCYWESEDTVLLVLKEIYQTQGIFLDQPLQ

Bile acid receptor = Bile acid receptor (Homo sapiens, UniProt Q96RI1); assay: Affinity On-target Cellular interaction: (Reporter gene assay (HEK293T cells)) EUB0001168a NR1H4; format: functional, cell-based, HEK-293T; parameters: mode of action Agonist, recommended concentration 1 uM
Bile acid receptor, sequence (Q96RI1 whole entry): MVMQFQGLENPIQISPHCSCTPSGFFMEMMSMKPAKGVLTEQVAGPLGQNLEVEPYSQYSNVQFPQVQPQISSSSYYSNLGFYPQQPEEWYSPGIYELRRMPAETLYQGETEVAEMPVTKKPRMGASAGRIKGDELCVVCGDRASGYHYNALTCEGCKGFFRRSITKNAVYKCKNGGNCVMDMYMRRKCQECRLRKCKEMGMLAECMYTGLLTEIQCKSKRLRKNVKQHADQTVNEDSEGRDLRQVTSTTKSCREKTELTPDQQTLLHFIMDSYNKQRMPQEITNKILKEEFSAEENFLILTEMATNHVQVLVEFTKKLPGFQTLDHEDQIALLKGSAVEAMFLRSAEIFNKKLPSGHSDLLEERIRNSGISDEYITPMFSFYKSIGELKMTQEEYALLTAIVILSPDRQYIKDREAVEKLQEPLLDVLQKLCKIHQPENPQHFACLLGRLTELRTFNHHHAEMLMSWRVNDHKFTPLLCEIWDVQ

[5] = biological target: Sodium/glucose cotransporter 2 (Homo sapiens, UniProt P31639); assay: Affinity On-target Cellular interaction: (AMG uptake assay in presence of 25% human plasma, 293.ETN cells) EUB0002515a SLC5A2; format: functional, HEK293; parameters: mode of action Inhibitor, recommended concentration 1 uM
Sodium/glucose cotransporter 2, sequence (P31639 whole entry): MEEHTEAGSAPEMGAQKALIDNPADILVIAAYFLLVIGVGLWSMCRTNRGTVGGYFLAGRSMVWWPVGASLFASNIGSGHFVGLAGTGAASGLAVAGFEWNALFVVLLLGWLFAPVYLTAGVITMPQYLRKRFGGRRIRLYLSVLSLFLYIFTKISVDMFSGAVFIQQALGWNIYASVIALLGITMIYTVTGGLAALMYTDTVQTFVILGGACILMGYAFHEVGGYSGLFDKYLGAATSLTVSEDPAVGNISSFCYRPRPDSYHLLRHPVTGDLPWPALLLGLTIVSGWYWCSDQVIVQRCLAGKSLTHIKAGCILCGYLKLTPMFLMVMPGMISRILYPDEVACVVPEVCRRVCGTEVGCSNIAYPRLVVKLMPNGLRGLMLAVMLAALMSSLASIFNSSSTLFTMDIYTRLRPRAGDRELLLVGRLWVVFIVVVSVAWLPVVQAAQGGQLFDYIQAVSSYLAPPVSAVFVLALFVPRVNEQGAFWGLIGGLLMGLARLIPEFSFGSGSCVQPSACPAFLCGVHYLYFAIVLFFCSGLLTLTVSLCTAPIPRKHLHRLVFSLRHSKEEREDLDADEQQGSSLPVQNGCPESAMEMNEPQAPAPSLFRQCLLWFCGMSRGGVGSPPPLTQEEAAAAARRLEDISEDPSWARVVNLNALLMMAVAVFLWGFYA

[6] = biological target: Nuclear receptor subfamily 1 group D member 2 (Homo sapiens, UniProt Q14995); assay: Affinity On-target Cellular interaction: (Reporter gene assay (HEK293T cells)) EUB0001155a NR1D2; format: functional, cell-based, HEK-293T; parameters: mode of action Agonist, recommended concentration 10 uM
Nuclear receptor subfamily 1 group D member 2, sequence (Q14995 whole entry): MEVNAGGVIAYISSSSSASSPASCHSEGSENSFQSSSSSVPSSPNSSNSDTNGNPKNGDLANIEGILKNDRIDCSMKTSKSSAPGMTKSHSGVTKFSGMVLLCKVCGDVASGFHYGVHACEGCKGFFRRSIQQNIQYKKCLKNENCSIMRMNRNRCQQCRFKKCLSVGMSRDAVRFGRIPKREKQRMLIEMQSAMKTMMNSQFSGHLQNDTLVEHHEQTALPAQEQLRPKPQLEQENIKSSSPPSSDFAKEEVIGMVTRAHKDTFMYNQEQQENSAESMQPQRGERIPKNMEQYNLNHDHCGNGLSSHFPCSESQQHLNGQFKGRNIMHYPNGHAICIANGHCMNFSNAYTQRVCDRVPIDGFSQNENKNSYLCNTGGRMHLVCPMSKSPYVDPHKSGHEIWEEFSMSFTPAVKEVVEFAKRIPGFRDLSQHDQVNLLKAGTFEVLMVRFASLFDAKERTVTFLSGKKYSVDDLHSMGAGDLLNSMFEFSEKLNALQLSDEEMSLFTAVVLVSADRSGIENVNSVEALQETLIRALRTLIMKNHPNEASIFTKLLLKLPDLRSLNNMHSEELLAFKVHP

[7] = biological target: Nuclear receptor subfamily 1 group D member 1 (Homo sapiens, UniProt P20393); assay: Affinity On-target Cellular interaction: (Reporter gene assay (HEK293T cells)) EUB0001155a NR1D1; format: functional, cell-based, HEK-293T; parameters: mode of action Agonist, recommended concentration 10 uM
Nuclear receptor subfamily 1 group D member 1, sequence (P20393 whole entry): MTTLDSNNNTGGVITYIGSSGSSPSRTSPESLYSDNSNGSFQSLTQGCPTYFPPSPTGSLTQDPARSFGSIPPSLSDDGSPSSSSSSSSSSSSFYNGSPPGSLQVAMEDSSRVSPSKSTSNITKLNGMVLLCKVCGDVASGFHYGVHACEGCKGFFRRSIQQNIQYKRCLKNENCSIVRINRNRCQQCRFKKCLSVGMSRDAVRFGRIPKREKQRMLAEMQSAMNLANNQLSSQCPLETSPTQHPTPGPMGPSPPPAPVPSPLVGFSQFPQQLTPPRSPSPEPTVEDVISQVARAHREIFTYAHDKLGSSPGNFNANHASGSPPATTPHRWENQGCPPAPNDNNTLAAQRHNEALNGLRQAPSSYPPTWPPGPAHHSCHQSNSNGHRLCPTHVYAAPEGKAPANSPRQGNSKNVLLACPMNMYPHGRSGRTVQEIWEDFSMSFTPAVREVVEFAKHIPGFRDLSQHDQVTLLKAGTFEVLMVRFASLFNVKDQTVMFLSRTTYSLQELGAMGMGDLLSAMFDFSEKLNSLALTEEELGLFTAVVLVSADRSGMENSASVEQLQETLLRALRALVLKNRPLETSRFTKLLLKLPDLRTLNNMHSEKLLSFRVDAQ

[8] = biological target: T3, Oxysterols receptor LXR-beta (Homo sapiens, UniProt P55055); assay: Affinity On-target Cellular interaction: (Reporter gene assay (HEK293T cells)) EUB0001167a NR1H2; format: functional, cell-based, HEK-293T; parameters: mode of action Agonist, recommended concentration 1 uM
T3 sequence (P55055 whole entry): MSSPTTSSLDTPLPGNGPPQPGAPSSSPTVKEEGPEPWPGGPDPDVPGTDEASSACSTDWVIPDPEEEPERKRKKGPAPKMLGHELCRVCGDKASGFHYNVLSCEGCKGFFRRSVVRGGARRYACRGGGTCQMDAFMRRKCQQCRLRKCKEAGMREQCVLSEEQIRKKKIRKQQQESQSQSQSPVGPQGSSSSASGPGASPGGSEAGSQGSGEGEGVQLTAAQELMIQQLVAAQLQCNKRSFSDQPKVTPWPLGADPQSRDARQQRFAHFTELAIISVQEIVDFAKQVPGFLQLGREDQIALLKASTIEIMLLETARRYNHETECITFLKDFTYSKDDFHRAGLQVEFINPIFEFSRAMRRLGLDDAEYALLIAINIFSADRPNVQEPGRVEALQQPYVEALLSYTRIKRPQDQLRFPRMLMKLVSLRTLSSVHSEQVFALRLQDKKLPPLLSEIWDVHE

[9] = biological target: Sodium- and chloride-dependent glycine transporter 1 (Homo sapiens, UniProt P48067); assay: Affinity On-target Cellular interaction: (Inhibition of radiolabelled [3H]glycine uptake in human SK-N-MC cells) EUB0002599a SLC6A9; format: functional, cell-based; parameters: mode of action Inhibitor, recommended concentration 1 uM
Sodium- and chloride-dependent glycine transporter 1, sequence (P48067 whole entry): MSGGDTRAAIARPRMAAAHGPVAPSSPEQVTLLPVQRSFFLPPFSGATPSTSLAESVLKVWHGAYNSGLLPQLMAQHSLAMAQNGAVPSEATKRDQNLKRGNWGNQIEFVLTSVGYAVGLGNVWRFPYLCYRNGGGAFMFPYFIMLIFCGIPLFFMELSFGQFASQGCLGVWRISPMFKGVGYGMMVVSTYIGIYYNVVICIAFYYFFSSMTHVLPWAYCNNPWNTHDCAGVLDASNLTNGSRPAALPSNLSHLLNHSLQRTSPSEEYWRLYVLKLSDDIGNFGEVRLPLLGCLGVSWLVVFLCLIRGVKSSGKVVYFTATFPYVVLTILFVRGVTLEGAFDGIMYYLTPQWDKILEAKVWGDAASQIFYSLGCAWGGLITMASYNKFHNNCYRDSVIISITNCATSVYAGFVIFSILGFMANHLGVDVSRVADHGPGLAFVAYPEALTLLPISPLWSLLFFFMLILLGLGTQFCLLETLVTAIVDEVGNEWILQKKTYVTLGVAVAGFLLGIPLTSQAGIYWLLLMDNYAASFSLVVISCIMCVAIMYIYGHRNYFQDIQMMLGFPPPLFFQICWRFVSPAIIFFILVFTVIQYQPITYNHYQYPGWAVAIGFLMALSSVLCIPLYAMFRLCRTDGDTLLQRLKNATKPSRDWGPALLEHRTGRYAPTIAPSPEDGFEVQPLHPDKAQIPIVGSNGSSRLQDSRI

[10] = biological target: T3, Oxysterols receptor LXR-beta; assay: Affinity On-target Cellular interaction: (Reporter gene assay (HEK293T cells)) EUB0001166a NR1H2; format: functional, cell-based, HEK-293T; parameters: mode of action Agonist, recommended concentration 1 uM
[11] = biological target: T4, Oxysterols receptor LXR-alpha (Homo sapiens, UniProt Q13133); assay: Affinity On-target Cellular interaction: (Reporter gene assay (HEK293T cells)) EUB0001166a NR1H3; format: functional, cell-based, HEK-293T; parameters: mode of action Agonist, recommended concentration 1 uM
T4 sequence (Q13133 whole entry): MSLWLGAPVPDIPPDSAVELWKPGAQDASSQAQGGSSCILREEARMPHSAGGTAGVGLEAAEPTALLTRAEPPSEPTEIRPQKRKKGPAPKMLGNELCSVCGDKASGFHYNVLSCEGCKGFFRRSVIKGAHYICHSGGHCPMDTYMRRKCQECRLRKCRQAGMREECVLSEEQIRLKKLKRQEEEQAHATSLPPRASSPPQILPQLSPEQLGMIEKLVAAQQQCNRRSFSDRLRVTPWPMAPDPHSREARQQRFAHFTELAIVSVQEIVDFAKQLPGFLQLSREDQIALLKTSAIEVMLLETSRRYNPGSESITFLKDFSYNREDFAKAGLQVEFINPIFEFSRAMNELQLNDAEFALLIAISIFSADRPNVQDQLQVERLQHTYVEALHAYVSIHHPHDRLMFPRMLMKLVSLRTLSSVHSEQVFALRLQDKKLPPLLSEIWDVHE

[12] = biological target: Thyroid hormone receptor beta (Homo sapiens, UniProt P10828); assay: Affinity On-target Cellular interaction: (Reporter gene assay (HEK293T cells)) EUB0002355a THRB; format: functional, cell-based, HEK-293T; parameters: mode of action Antagonist, recommended concentration 3 uM
Thyroid hormone receptor beta, sequence (P10828 whole entry): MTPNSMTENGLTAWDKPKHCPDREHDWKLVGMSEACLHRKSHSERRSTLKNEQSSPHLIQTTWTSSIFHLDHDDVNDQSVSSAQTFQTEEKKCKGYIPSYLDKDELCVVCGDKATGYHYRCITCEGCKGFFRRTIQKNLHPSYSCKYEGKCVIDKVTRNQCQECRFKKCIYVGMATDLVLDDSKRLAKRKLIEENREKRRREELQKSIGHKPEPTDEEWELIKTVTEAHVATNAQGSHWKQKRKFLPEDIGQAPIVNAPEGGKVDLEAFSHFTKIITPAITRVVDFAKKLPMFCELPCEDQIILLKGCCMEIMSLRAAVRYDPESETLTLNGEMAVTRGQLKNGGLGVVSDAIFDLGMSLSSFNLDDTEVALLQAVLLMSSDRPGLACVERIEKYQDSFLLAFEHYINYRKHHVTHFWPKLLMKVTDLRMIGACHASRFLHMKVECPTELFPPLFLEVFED

Adenosine kinase, sequence (P55263 whole entry): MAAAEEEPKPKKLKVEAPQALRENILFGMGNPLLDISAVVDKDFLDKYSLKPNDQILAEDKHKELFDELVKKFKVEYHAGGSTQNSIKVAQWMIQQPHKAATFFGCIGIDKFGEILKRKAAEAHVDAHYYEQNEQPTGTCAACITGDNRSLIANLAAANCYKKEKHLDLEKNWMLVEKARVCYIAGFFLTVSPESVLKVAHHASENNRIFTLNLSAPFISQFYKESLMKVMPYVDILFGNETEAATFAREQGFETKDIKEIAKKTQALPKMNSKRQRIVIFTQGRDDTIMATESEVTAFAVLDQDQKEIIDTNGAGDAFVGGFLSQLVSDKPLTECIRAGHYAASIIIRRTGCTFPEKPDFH

Compound: Nc1ncnc2nc(-c3ccc(N4CCOCC4)nc3)cc(-c3cccc(Br)c3)c12
- IC50 (Adenosine kinase): 51 nM

Compound: CN1CCN(c2ccc(/C=C(\C#N)c3ccccc3Br)cc2)CC1
- IC50 [1]: 1800 nM

Compound: O=C(Nc1ccc(C(O)(C(F)(F)F)C(F)(F)F)cc1)c1ccc(C(F)(F)F)cc1
- EC50 [2]: 2000 nM

Compound: CC(C)c1c(CN(C)C(C)Cc2ccccc2)n(C)n(-c2ccccc2)c1=O (centres undefined) [FAMPROFAZONE]
- EC50 [3]: 130 nM

Compound: O=C(N(CCc1ccccc1)C1CCCCC1)n1ncc(-c2ccc(OC(F)(F)F)cc2)n1
- IC50 [4]: 3.6 nM

Compound: O=C(O)c1ccnc(N2CC(O)(c3ccc(OCc4c(-c5c(Cl)cccc5Cl)noc4C4CC4)cc3Cl)C2)c1 [CILOFEXOR]
- EC50 (Bile acid receptor): 40 nM

Compound: OC[C@H]1O[C@@H](c2ccc(Cl)c(Cc3ccc(OCCOC4CC4)cc3)c2)[C@H](O)[C@@H](O)[C@@H]1O [BEXAGLIFLOZIN]
- IC50 [5]: 2 nM

Compound: CCCCCNC(=O)N1CCC(CN(Cc2ccc(Cl)cc2)Cc2ccc([N+](=O)[O-])s2)C1 (centres undefined) [SR9011]
- EC50 [6]: 3000 nM
- EC50 [7]: 2000 nM

Compound: CC(=O)Oc1ccc2c(c1)[C@@]1(C)CCC[C@](C)(C(=O)OC(=O)[C@@]3(C)CCC[C@]4(C)c5cc(OC(C)=O)ccc5CC[C@@H]34)[C@@H]1CC2 [ACETYL PODOCARPIC ACID ANHYDRIDE]
- EC50 [8]: 1 nM

Compound: C[C@@H](Oc1ccc(S(C)(=O)=O)cc1C(=O)N1C[C@@H]2C[C@]2(c2cc(C(F)(F)F)on2)C1)C(F)(F)F [ICLEPERTIN]
- IC50 [9]: 5 nM

Compound: CC(C)(O)c1cn(-c2ccc(-c3cccc(S(C)(=O)=O)c3)cc2)c(C(C)(C)c2ccccc2Cl)n1 [BMS-779788]
- EC50 [10]: 300 nM
- EC50 [11]: 200 nM

Compound: Cc1oc2ccccc2c1Cc1cc(I)c(OCC(=O)O)c(I)c1
- IC50 [12]: 2000 nM
